Results taken from ChEMBL document CHEMBL1133269, “4-Alkylidenyl glutamic acids, potent and selective GluR5 agonists” (Bioorg Med Chem Lett, 2000).
Activity calls are given as the source filed them. The rule behind the calls is not given here.

Legend:
[1] = molecular target: Glutamate receptor ionotropic, kainate 1 (Homo sapiens, UniProt P39086); experiment: biochemical
Description: Binding affinity of compound was determined against Ionotropic glutamate receptor ionotropic kainate 1 using cell membranes prepared from HEK293 cells

[2] = Selectivity of compound was determined as the ratio of Ki of Glutamate receptor 6 to that of Glutamate receptor 5
[3] = molecular target: T1, Glutamate receptor ionotropic, kainate 2 (Homo sapiens, UniProt Q13002); experiment: biochemical
Description: Binding affinity of compound was determined against Ionotropic glutamate receptor ionotropic kainate 2 using cell membranes prepared from HEK293 cells

[4] = molecular target: T1, Glutamate receptor ionotropic, kainate 2; experiment: Compound was tested for agonistic activity at Glutamate receptor 6 using HEK293 cells; type: functional, cell-based
[5] = molecular target: T2, Glutamate receptor ionotropic, kainate 5 (Homo sapiens, UniProt Q16478); experiment: Binding affinity of compound was determined against Glutamate receptor (KA2) using cell membranes prepared from HEK293 cells
T2 sequence (Q16478 whole entry): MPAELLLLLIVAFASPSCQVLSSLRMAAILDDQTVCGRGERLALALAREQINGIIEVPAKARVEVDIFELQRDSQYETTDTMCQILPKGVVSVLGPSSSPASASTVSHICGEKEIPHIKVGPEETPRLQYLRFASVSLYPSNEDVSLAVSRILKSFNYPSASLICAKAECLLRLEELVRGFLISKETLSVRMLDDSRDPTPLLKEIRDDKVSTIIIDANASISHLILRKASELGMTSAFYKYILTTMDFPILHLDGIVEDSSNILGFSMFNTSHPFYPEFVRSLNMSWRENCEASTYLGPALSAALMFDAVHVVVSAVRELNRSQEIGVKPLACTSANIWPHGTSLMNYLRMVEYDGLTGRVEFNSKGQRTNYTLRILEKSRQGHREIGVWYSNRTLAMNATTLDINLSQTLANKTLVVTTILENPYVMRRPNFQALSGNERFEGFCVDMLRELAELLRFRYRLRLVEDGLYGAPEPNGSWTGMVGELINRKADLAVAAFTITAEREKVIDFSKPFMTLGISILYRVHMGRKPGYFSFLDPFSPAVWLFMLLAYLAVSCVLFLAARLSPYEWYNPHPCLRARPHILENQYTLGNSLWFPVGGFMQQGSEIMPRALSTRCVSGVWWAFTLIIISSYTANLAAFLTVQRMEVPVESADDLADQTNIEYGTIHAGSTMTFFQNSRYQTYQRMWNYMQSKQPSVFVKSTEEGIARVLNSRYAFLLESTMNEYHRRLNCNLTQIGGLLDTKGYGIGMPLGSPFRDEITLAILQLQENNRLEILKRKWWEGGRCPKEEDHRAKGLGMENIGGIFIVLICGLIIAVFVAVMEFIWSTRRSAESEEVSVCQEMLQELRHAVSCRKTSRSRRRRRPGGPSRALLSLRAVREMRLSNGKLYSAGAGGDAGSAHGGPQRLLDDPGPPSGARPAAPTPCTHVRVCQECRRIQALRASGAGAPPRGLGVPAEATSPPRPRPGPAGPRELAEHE

Glutamate receptor 2 = Glutamate receptor 2 (Homo sapiens, UniProt P42262); experiment: Binding affinity of compound was determined against Ionotropic glutamate receptor AMPA 2 using cell membranes prepared from HEK293 cells
Glutamate receptor 1 = Glutamate receptor 1 (Homo sapiens, UniProt P42261); experiment: biochemical
Description: Binding affinity of compound was determined against Ionotropic glutamate receptor AMPA 1 using cell membranes prepared from HEK293 cells

Glutamate receptor 4 = Glutamate receptor 4 (Homo sapiens, UniProt P48058); experiment: biochemical
Description: Binding affinity of compound was determined against Ionotropic glutamate receptor AMPA 4 using cell membranes prepared from HEK293 cells

[6] = molecular target: T1, Glutamate receptor ionotropic, kainate 2; experiment: Agonistic activity of compound on Glutamate receptor 6 using cell membranes prepared from HEK293 cells was expressed as percentage Rmax; ne means no effect; type: functional, cell-based
[7] = molecular target: T2, Glutamate receptor ionotropic, kainate 5; experiment: Binding affinity of compound was determined against KA2 using cell membranes prepared from HEK293 cells

Chain of Glutamate receptor 4 (P48058 whole entry): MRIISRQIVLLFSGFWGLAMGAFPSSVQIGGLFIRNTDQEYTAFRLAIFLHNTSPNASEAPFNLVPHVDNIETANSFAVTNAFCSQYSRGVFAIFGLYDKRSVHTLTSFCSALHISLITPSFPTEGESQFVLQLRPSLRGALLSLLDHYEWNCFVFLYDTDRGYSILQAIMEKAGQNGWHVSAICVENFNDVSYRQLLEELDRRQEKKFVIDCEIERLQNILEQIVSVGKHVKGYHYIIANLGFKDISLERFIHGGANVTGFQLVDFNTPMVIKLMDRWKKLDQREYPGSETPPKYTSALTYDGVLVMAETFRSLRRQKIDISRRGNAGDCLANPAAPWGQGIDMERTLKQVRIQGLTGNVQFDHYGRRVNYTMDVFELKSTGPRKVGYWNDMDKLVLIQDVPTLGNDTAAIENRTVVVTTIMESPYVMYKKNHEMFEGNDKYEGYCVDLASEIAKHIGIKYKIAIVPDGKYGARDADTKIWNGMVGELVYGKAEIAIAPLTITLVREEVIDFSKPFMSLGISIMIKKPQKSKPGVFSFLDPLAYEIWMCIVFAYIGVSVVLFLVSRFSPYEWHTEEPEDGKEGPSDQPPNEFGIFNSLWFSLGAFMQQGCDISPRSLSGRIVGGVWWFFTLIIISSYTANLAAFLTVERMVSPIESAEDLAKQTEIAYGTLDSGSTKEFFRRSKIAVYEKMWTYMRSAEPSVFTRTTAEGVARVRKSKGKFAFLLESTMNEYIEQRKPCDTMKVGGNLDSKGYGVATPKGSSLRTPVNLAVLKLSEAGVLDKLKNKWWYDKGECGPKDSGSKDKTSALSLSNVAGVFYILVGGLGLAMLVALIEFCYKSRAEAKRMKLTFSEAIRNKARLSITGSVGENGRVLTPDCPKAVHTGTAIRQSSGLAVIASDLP
T1 sequence (Q13002 whole entry): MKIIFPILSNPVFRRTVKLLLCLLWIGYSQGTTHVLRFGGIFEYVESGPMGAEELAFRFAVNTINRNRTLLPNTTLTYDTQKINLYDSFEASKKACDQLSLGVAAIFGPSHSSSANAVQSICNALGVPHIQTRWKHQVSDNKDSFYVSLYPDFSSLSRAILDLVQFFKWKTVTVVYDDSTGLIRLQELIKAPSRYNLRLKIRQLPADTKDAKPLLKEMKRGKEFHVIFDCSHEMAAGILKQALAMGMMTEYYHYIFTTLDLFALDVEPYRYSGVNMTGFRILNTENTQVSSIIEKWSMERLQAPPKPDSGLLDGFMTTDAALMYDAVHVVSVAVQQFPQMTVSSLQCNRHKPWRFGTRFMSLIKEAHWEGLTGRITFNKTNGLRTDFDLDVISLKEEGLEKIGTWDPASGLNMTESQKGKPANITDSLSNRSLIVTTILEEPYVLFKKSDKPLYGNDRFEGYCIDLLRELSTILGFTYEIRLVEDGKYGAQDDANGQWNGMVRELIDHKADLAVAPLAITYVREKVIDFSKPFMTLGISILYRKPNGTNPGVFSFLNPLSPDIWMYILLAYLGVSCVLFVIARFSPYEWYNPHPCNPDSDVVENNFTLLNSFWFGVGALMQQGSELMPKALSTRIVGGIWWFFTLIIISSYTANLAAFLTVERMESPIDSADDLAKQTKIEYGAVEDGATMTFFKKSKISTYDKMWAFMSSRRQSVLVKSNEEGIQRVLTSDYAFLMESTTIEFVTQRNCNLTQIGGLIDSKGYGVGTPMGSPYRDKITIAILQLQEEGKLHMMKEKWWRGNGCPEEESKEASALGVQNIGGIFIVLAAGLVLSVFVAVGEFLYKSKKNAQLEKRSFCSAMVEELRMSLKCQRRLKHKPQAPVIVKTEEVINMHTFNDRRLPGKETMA
Chain of Glutamate receptor ionotropic, kainate 1 (P39086 whole entry): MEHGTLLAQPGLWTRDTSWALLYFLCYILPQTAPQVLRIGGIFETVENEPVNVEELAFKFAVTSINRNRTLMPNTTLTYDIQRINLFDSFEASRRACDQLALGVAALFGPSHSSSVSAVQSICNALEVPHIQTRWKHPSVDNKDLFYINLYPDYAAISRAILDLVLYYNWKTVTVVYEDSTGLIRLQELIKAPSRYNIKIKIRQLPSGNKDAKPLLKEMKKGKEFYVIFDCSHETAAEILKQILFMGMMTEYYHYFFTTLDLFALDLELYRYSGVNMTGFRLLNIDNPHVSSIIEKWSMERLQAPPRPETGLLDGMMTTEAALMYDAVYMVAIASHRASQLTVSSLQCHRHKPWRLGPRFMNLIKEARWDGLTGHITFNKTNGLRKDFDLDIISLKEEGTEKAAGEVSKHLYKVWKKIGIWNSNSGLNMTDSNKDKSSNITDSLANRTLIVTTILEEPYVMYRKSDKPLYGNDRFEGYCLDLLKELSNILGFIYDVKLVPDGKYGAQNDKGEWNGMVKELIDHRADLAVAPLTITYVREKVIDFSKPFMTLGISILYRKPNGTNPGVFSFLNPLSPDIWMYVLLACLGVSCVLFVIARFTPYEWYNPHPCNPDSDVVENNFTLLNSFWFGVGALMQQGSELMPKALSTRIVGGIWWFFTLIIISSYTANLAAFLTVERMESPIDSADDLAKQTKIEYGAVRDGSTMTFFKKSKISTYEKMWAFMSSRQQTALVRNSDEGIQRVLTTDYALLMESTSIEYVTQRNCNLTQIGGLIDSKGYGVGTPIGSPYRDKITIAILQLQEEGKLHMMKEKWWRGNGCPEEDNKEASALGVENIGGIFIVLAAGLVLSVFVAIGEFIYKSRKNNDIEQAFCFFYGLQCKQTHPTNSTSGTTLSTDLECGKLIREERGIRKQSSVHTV
Chain of Glutamate receptor 2 (P42262 whole entry): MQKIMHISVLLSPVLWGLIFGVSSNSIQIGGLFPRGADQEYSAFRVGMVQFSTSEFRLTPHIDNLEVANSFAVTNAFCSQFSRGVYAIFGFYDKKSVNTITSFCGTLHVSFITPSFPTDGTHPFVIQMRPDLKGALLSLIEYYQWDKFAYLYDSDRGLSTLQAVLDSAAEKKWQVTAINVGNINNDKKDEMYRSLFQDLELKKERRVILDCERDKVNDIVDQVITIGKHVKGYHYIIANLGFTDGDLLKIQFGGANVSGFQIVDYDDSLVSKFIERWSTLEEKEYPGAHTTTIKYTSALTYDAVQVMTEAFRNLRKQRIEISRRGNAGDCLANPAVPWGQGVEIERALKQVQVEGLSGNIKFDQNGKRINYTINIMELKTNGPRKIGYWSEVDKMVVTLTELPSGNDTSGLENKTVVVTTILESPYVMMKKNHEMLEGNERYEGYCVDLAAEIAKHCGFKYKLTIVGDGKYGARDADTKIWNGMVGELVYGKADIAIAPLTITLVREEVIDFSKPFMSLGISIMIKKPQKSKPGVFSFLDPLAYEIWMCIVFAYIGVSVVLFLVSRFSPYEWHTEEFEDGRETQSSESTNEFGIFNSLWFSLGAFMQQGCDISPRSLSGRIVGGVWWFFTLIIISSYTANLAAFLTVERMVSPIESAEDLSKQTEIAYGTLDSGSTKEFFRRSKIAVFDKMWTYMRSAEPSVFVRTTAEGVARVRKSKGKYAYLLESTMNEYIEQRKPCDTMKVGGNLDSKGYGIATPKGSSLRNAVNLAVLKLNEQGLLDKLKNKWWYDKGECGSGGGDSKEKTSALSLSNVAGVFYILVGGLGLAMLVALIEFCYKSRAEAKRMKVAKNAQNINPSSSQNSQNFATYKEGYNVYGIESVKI
Chain of Glutamate receptor 1 (P42261 whole entry): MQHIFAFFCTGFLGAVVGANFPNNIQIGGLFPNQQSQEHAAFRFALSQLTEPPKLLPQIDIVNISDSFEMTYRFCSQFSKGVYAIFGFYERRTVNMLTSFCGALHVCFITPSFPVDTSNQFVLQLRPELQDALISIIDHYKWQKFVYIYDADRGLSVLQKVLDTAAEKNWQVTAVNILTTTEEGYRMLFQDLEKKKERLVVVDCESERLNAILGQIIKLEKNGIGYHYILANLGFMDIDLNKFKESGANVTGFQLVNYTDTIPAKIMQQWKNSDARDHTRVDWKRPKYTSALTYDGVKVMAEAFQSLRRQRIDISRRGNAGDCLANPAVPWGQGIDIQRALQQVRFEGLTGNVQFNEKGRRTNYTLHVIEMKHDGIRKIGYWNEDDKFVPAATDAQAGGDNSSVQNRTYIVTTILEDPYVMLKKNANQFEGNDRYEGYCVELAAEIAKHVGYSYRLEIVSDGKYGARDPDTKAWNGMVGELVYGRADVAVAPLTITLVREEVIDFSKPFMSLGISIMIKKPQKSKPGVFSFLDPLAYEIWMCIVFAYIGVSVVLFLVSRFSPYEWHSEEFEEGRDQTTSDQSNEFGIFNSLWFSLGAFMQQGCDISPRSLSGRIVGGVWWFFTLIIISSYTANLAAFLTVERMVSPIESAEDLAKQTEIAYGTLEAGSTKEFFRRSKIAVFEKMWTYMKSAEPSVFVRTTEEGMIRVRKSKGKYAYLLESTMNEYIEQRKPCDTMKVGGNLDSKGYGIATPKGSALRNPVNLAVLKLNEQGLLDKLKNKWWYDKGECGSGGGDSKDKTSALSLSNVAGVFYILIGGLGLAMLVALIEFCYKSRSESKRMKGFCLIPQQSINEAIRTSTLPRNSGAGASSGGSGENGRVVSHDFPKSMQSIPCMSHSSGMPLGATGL

| Compound | Ki [1] | Ratio [2] | Ki [3] | further results |
| --- | --- | --- | --- | --- |
| N[C@@H](C/C(=C\C1CCCCC1)C(=O)O)C(=O)O | 6.06 µM | > 16.5 | > 100 µM |  |
| CC(C)(C)/C=C(\C[C@H](N)C(=O)O)C(=O)O |  |  | > 100 µM |  |
| CC/C=C(/C[C@H](N)C(=O)O)C(=O)O |  |  | 18 µM | EC50 [4]: > 300 µM |
| N[C@@H](CC(C(=O)O)=C1CCC1)C(=O)O |  |  | > 100 µM |  |
| N[C@@H](C/C(=C\C1CCCC1)C(=O)O)C(=O)O |  |  | 87.6 µM |  |
| N[C@@H](C/C(=C\C=C\c1ccccc1)C(=O)O)C(=O)O |  |  | > 100 µM |  |
| N[C@@H](C/C(=C\c1ccc(Cl)cc1)C(=O)O)C(=O)O |  |  | 193 µM |  |
| C=C(C)[C@H]1CN[C@H](C(=O)O)[C@H]1CC(=O)O [KAINIC ACID] |  |  |  | Ki [5]: 0.08 µM |
| CCC(CC)=C(C[C@H](N)C(=O)O)C(=O)O |  |  | 207 µM | Ki (Glutamate receptor 2): 281 µM; Ki (Glutamate receptor 1): > 100 µM; Ki [5]: 21.4 µM; Ki (Glutamate receptor 4): 4.71 µM |
| CC1(C)CCC/C1=C(\C[C@H](N)C(=O)O)C(=O)O | 3.62 µM | 12.8 | 46.3 µM |  |
| C/C=C(/C[C@H](N)C(=O)O)C(=O)O | 2.2 µM | 1.14 | 2.5 µM |  |
| N[C@@H](C[C@@H](C/C=C/c1ccc2ccccc2c1)C(=O)O)C(=O)O |  |  |  | Ki (Glutamate receptor 2): > 10 µM; Ki (Glutamate receptor 1): > 10 µM |
| CCCC/C=C(/C[C@H](N)C(=O)O)C(=O)O |  |  | 125 µM |  |
| CC1(C)CCC/C1=C(/C[C@H](N)C(=O)O)C(=O)O | 0.236 µM | > 424 | > 100 µM |  |
| C/C=C/C=C(/C[C@H](N)C(=O)O)C(=O)O |  |  | 16.3 µM |  |
| CC(C)/C=C(/C[C@H](N)C(=O)O)C(=O)O |  |  | > 500 µM | Ki (Glutamate receptor 2): 44.9 µM; Ki (Glutamate receptor 1): 113 µM; Ki [5]: 82.2 µM; Ki (Glutamate receptor 4): 10.3 µM |
| N[C@@H](C/C(=C\CCc1ccccc1)C(=O)O)C(=O)O |  |  | 205 µM |  |
| N[C@@H](CC(C(=O)O)=C1CCCC1)C(=O)O |  |  | > 100 µM | Ki (Glutamate receptor 2): 3.68 µM; Ki (Glutamate receptor 1): 1.1 µM; Ki [5]: 10 µM; EC50 [4]: > 100 µM; Ki (Glutamate receptor 4): 0.533 µM; Rmax [6]: inactive |
| CC(C)/C=C(\C[C@H](N)C(=O)O)C(=O)O |  |  | 82.5 µM | Ki (Glutamate receptor 2): 3.7 µM; Ki [7]: 7.5 µM; Ki (Glutamate receptor 1): 0.7 µM; Ki (Glutamate receptor 4): 5.6 µM |
| CC(C)C/C=C(\C[C@H](N)C(=O)O)C(=O)O |  |  | 634 µM |  |
| C=C(C[C@H](N)C(=O)O)C(=O)O |  |  | 0.45 µM |  |
| CC(C)=C(C[C@H](N)C(=O)O)C(=O)O | 13.9 µM | > 28.8 | > 400 µM |  |
| N[C@@H](C/C(=C/CCC(c1ccccc1)c1ccccc1)C(=O)O)C(=O)O | > 1 µM | 10 | > 10 µM |  |
| CCC/C=C(/C[C@H](N)C(=O)O)C(=O)O |  |  | 57.2 µM |  |
| N[C@@H](C/C(=C\CCC(c1ccccc1)c1ccccc1)C(=O)O)C(=O)O | > 1 µM | 100 | > 100 µM |  |
| N[C@@H](CC(C(=O)O)=C1CCCCC1)C(=O)O | 5.13 µM | 49.7 | 255 µM |  |
